The results in this text go back to article PMC6423129, “Activity and structural analysis of GRL-117C: a novel small molecule CCR5 inhibitor active against R5-tropic HIV-1s” (Scientific Reports, 2019).

For one assay, the system named is HIV-1YU2. Kind of assay: TZM-bl single-round infection assay, HIV-1YU2. The format is cell-based. The note with it: Human immunodeficiency virus 1, YU2, drug-sensitive, mean ± SD. The procedure: (§1) MAGI-CCR5 cells[18] were maintained in DMEM supplemented with 10% fetal calf serum (FCS: Gemini Bio-Products, West Sacramento, CA), 200 μg/ml G418, 100 μg/ml hygromycin B, and 100 μg/ml zeomycin. The Chinese hamster ovary (CHO) cells expressing CCR5[19] were maintained in Ham’s F-12 medium (GIBCO-BRL, Rockville, MD) supplemented with 10% FCS, 50 U/ml penicillin, and 50 μg/ml streptomycin in the presence of 5 μg/ml blasticidin S hydrochloride. TZM-bl cells were obtained from the NIH AIDS Reagent Program, and were cultured in DMEM with 10% FCS. Peripheral blood mononuclear cells (PBMCs) were isolated from buffy coats of HIV-1 seronegative individuals, and were activated with 10 μg/ml phytohemagglutinin (PHA) prior to use[16]. A laboratory wild-type R5-HIV-1 strain (HIV-1Ba-L)[37] was employed for drug susceptibility assays. AD101 (experimental CCR5 inhibitor) and VVC-resistant HIV clones[7],[8] were provided by Dr. John P. Moore of Cornell University for this study. The clones were propagated with activated PBMCs, and were used for the assays. A clinical HIV-1 strain, HIV-1KP-5pc, and an MVC-resistant isolate, HIV-1KP-5mvcR, were prepared and used for antiviral assays, as previously described[10],[38]. The following reagents (plasmids) for T/F HIV-1 viruses[22],[24] were obtained through the NIH AIDS Reagent Program, Division of AIDS, NIAID, NIH: pCH040.c/2625 (cat# 11740), pCH106.c/2633 (cat# 11743), pTHRO.c/2626 (cat# 11745), and pCH058.c/2960 (cat# 11856), from Dr. John Kappes and Dr. Christina Ochsenbauer.
(§2) Antiviral assays using PHA-PBMCs (p24 assay) were conducted as previously reported[16],[38]. In brief, PHA-PBMCs (1 × 10^6/ml) were exposed to 50 TCID50 of HIV-1Ba-L or drug-resistant HIV-1 infectious clones in the presence or absence of various concentrations of drugs; 10-fold serial dilutions were performed in 96-well microculture plates. The amount of p24 antigens produced by the cells was determined on day 7 in the culture via a commercially available ELISA kit (PerkinElmer). The p24 production level in drug-free control cell cultures was used as the reference. […] Antiviral assays using MAGI-CCR5 cells (MAGI assay) were conducted as previously reported[16],[39]. Single-round virus infection assays using TZM-bl cells infected with R5-HIV-1s (HIV-1YU2, HIV-1KP-5pc, and HIV-1KP-5mvcR)[10] were also conducted as previously described.

Another assay relates to HIV-1KP-5pc. The assay can be described thus: TZM-bl single-round infection assay, HIV-1KP-5pc. The format is cell-based. The following applies: Human immunodeficiency virus 1, TZM-bl. The procedure: as §1, §2
In assay [1] the target is T1, CCR5 (Homo sapiens, UniProt P51681).
T1 construct: expressed in transfected cells; host or cells: Chinese hamster ovary (CHO) cells expressing CCR5
The assay can be described thus: Inhibition of 125I-MIP-1β binding to CCR5 (CCR5+ CHO cells). The procedure: (§3) In order to determine whether GRL derivatives block the binding of CC-chemokines to CCR5, we conducted a CC-chemokine binding inhibition assay using ^125I-labeled CC-chemokines (^125I-RANTES, ^125I-MIP-1α, and ^125I-MIP-1β) and CCR5 expressing cells.
(§4) CCR5^+ CHO cells were incubated with (A) ^125I-MIP-1α, (B) ^125I-MIP-1β, and (C) ^125I-RANTES (200 ng/ml) in the presence or absence of varying concentrations of CCR5 inhibitors. Data are shown as means ± s.d. of three independent experiments.
(§5) The inhibition of the binding of ^125I-labeled CC-chemokines ([^125I] RANTES, [^125I] MIP-1α, or [^125I] MIP-1β) to CCR5 by various CCR5 inhibitors was measured as previously described. Calcium flux inhibition assays were also performed with CCR5 inhibitors, and were carried out with the Fluo-4 Direct^TM calcium reagent (Invitrogen); assays were conducted as previously described with minor modifications. In brief, CHO-CCR5 cells (5 × 10^5 cells) were exposed to Fluo-4 Direct^TM calcium reagent for 60 min at 37 °C in RPMI containing 5% FCS. Cells were then incubated with the test compound for 30 min at varying concentrations. Subsequently, cells were exposed to either MIP-1α, MIP-1β, or RANTES at 200 ng/ml. Relative increases in cytosolic Ca^2+ levels after chemokine exposure were determined with flow cytometry (FACSCalibur, BD Biosciences), and IC50 values of cytosolic Ca^2+ mobilization (Ca^2+ flux) were compared with the Ca^2+ flux level in drug-free control samples.

The target of assay [2] is T1, CCR5. The assay can be described thus: Inhibition of 125I-RANTES binding to CCR5 (CCR5+ CHO cells). Here is the method:
as §3, §4, §5

For another assay, the system named is HIV-1KP-5mvcR. The assay can be described thus: TZM-bl single-round infection assay, MVC-resistant HIV-1KP-5mvcR. Format: cell-based. Here is the method:
as §1, §2

In assay [3] the target is T1, CCR5. The assay can be described thus: Inhibition of 125I-MIP-1α binding to CCR5 (CCR5+ CHO cells). The procedure:
as §3, §4, §5

For the next assay, the system named is R5-HIV-1BaL. Kind of assay: p24 assay using PBMCs and R5-HIV-1BaL. Format: cell-based. The note with it: Human immunodeficiency virus 1, BAL, PBMC, 168 h, Ba-L (PBMCs), day 7. The procedure:
as §1, §2

Assay [4] deals with CC101.19 cl.7 (AD101 resistant). Kind of assay: microbe, parasite or virus in culture. The format is cell-based, HIV-1. The procedure:
as §1, §2

Assay [5] deals with D1/85.16 cl.23 (VVC resistant). Kind of assay: microbe, parasite or virus in culture. Format: cell-based, HIV-1. Here is the method: as §1, §2
The mark [6] stands for this setting: Human immunodeficiency virus 1, TZM-bl.

T1 sequence (P51681 whole entry): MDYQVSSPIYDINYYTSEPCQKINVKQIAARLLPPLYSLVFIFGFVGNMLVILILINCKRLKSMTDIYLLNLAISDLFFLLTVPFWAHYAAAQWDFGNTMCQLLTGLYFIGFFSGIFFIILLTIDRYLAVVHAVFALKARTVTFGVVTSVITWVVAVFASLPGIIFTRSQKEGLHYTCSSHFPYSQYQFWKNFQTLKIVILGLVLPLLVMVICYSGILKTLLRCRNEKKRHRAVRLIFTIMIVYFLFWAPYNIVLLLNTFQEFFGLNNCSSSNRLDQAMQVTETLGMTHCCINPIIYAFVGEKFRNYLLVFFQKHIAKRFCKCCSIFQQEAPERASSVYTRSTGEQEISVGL

By IC50 is commonly meant the concentration that inhibits the measured activity by half. A higher IC50 goes with a need for much substance. The IC90 is the concentration needed for an effect of 90%. Higher therefore signals a need for much substance. The EC50 is the concentration giving half of the maximal effect. A lower EC50 goes with greater potency. For the compound `C=CCN(C(=O)OCc1ccc([N+](=O)[O-])cc1)C1CC2CCC(C1)N2CCC(C)(CN(C)S(=O)(=O)c1ccccc1)c1ccccc1` (stereo not drawn) [GRL-117C], the 50% inhibitory concentration (IC50) with HIV-1YU2 is 68 ± 8.8 nM; in the assay with HIV-1KP-5pc (KP-5pc, drug-sensitive clinical strain, TZM-bl assay, mean ± SD), 160 ± 30 nM; with HIV-1KP-5mvcR (setting [6]), 686 ± 89 nM; with R5-HIV-1BaL, 8.1 nM; in assay [4] (CC101.19 cl.7 (AD101 resistant)), 32.5 nM; in [4] (Human immunodeficiency virus 1, CC101.19 cl.7 (AD101 resistant)), under 40 nM. Also, the IC50 in assay [5] (D1/85.16 cl.23 (VVC resistant)) was 29.8 nM; in [5] (Human immunodeficiency virus 1, D1/85.16 cl.23 (VVC resistant)), under 40 nM. For the same compound, the IC90 is over 100 nM with HIV-1YU2; 767 nM with HIV-1KP-5pc; over 100 nM in the assay with HIV-1KP-5mvcR (setting [6]); 48.3 nM in the assay on R5-HIV-1BaL; 296 nM in [4] (Human immunodeficiency virus 1); 415 nM in assay [5] (Human immunodeficiency virus 1). Further, the half-maximal effective concentration (EC50) worked out at 2 nM on CCR5 [1], 121 nM on CCR5 [2] and 4.3 nM on CCR5 [3]. Also, in the assay on HIV-1KP-5mvcR (686 nM vs MVC 41 nM), the “IC50 against HIV-1KP-5mvcR relative to that of MVC” value was “more than 10 fold”.
